Data taken from patent US20250228858A1, “ANTI-CANCER COMBINATION THERAPY” (Boehringer Ingelheim International GmbH, priority 2023, published 2025).
Where two headings read alike, the source gives them in different places.

What was measured:
[1] = test system: HER2-overexpressing human esophagus cancer cell line OE19; assay type: in vivo; details: day 20, zongertinib 20 mg/kg qdx20 p.o., T-DXd 3 mg/kg q21dx1 i.v., alone or combined; for Regressions >30%: tumors regressed/total
Method: The study is performed in human esophagus cancer cell line OE19 grown as subcutaneous xenografts in NMRI-Foxn1^nu mice. Day 1 was the first day, day 20 the final day of analysis.
OE19 is a HER2-overexpressing human esophagus cancer cell line that can be obtained from the European Collection of Authenticated Cell Cultures (ACACC Cat. No. 960071721). Cells are cultured in T75, T175 and 5-Layer tissue culture flasks at 37° C. and 5% CO2. The medium used is RPMI 1640 (ATCC #30-2001) supplemented with 10% FCS (Thermo Scientific #SH 30084.03). Cultures are split twice weekly with a ratio of 1:3-1:4.
To establish subcutaneous tumors, OE19 cells are harvested by centrifugation, washed and resuspended in PBS+5% FCS at 5×10^7 cells/ml. 100 μl cell suspension containing 5×10^6 cells is injected subcutaneously into the right flank of the mice (1 site per mouse).
Tumor volumes and side effects are monitored as described in Example 1 (see paragraph 1.1.6), except that control animals are sacrificed when the median tumor volume of the group reaches a size of approximately 1190 mm^3.
The statistical evaluation of the tumor volume and the body weight is conducted on day 20.

parental NCI-N87 cells = test: Proliferation assay (CellTiter Glo), parental NCI-N87 cells; assay type: cell-based, human; details: 5 days of incubation, in vitro
Method: Per well, 1000 cells are seeded in 40 μL medium in white, sterile 384-well culture plates (TC-treated; PerkinElmer #6007680) and incubated overnight in a humidified incubator at 37° C. and 5% CO2. 0.1% DMSO-control or serial compound dilution in triplicates are added. […] After 5 days of incubation with test compounds, the cells plates are measured upon addition of CellTiter Glo Luminescent Cell Viability Reagent (Promega, #G9243) to assess cell viability. The plates are placed on a shaker for five minutes and additionally incubated for 10 minutes at room temperature to induce cell lysis and to stabilize the luminescent signal. The luminescent signal of each well is measured in an EnSpire Multilabel Plate Reader 658 (PerkinElmer). The dose response curves are fit and visualized using Boehringer Ingelheim's proprietary software MegaLab and PRISM (GraphPad Inc.).

[2] = test system: HER2-overexpressing human gastric cancer cell line NCI-N87; test: NCI-N87 subcutaneous xenograft, zongertinib with T-DXd; assay type: in vivo, NMRI-Foxn1^nu mice; details: for Regressions >30% / TGI: day 22; for Regressions >30%: tumors regressed/total
Method: The study is performed in human gastric cancer cell line NCI-N87 grown as subcutaneous xenografts in NMRI-Foxn1^nu mice. Day 1 was the first day, day 21 the last day of treatment and day 22 the final day of analysis. […]
NCI-N87 is a HER2-overexpressing human gastric cancer cell line that can be obtained from the American Type Culture Collection (ATCC #CRL-5822). Cells are cultured in T175 tissue culture flasks at 37° C. and 5% CO2. The medium used is RPMI 1640 (ATCC #30-2001) supplemented with 10% fetal calf serum (FCS) (Thermo Scientific #SH 30084.03). Cultures are split twice weekly with a ratio of 1:2.
Mice are 6- to 10-week-old female NMRI-Foxn1^nu purchased from Taconic, Denmark. After arrival at the animal facility, mice are allowed to adjust to conditions at least for 5 days before they are used for the experiment. They are housed in Macrolon® type III cages in groups of 8 to 10 under pathogen-free, controlled and standardized conditions at 21.5±1.5° C. temperature, 55±10% humidity and 12-h light-dark cycle. Standardized diet (PROVIMI KLIBA) and autoclaved tap water are provided ad libitum. Subcutaneous microchips implanted under isoflurane anaesthesia are used to identify each mouse. Cage cards showing the study number, the animal identification number, the compound, the dose level, the administration route as well as the schedule remain with the animals throughout the study.
To establish subcutaneous tumors, NCI-N87 cells are harvested by centrifugation, washed and resuspended in PBS+5% FCS at 2.5×10^7 cells/ml. 100 μl cell suspension containing 2.5×10^6 cells is injected subcutaneously into the right flank of the mice (1 site per mouse).
The suspension is used for a maximum of 7 days.
T-DM1 (Kadcyla) can be purchased from Roche.
Mice in the control group are treated with vehicle, i.e.: • (i) 0.5% Natrosol, administered once daily for the duration of the treatment intragastrally by gavage needle with a volume of 10 ml/kg body weight; and • (ii) saline (0.9%), administered once every three weeks intravenously into the tail vein with a volume of 5 ml/kg.
Tumor volumes are measured three times a week with a caliper. The volume of each tumor [in mm^3] is calculated according to the formula: […]
To monitor side effects of treatment, mice are inspected daily for abnormalities and body weight is determined three times a week. […] In addition, animals with tumor sizes exceeding 1500 mm^3 in diameter, with ulcerating tumors or 18% body weight loss are euthanized for ethical reasons.
For a quick overview of possible treatment effects, the median of the tumor volume of each treatment group T is referred to the median of the control C as tumor growth inhibition (TGI) defined as: […]

[3] = zongertinib 10 mg/kg qdx21 p.o., alone or combined with T-DXd 3 mg/kg q21dx1 i.v.
[4] = zongertinib 20 mg/kg qdx21 p.o., T-DXd 3 mg/kg q21dx1 i.v., alone or combined

Question: Which “Regressions >30%” value [1] does the source give for C=CC(=O)NC1CCN(c2ncc3ncnc(Nc4ccc(Oc5ccc6c(c5)ncn6C)c(C)c4)c3n2)CC1 [Zongertinib, N-{1-[8-({3-methyl-4-[(1-methyl-1H-1,3-benzodiazol-5-yl)oxy]phenyl}amino)-[1,3]diazino [5,4-d]pyrimidin-2-yl]piperidin-4-yl}prop-2-enamide] here?
Answer: 0/8

Question: And the “Regressions >30%” value ([1]; listed as zongertinib)?
Answer: no tumors

Question: What about the TGI [1] of the same compound?
Answer: 73%

Question: What about the “sensitivity (dose response, cell viability)” value (parental NCI-N87 cells) of the same compound?
Answer: sensitive

Question: And the “Regressions >30%” value [2, 3]?
Answer: 5/8

Question: And the “Regressions >30%” value [2, 4]?
Answer: 7/8

Question: And the TGI [2, 3]?
Answer: 114%

Question: What about the TGI [2, 4] of the same compound?
Answer: 123%

Question: What about the “effect on tumor growth (median tumor volumes over time)” value ([2]; zongertinib 10 or 20 mg/kg/day, T-DXd 3 mg/kg once, 21-day experiment) of the same compound?
Answer: continuously shrank more than those in mice treated with T-DXd
